# Assay results: patent US20240182445A1 (ONO PHARMACEUTICAL CO., LTD., priority 2019, published 2024)
# Experiments:
# [1] = molecular target: T1, human TREK-1 (Homo sapiens, UniProt O95069); assay: TREK-1 Thallium (Tl+) flux assay, Method 1; assay type: cell-based; settings: for IC50: TREK-1 Thallium (Tl+) flux assay; for inhibition at 30 µM: read-out: Tl^+ Assay % inhibition at 30 uM (Minus value indicates activation of TREK-1), CHO-K1 cells stably expressing human TREK-1, minus = activation
# T1 construct: expressed in transfected cells
# T1 sequence (O95069 1-426): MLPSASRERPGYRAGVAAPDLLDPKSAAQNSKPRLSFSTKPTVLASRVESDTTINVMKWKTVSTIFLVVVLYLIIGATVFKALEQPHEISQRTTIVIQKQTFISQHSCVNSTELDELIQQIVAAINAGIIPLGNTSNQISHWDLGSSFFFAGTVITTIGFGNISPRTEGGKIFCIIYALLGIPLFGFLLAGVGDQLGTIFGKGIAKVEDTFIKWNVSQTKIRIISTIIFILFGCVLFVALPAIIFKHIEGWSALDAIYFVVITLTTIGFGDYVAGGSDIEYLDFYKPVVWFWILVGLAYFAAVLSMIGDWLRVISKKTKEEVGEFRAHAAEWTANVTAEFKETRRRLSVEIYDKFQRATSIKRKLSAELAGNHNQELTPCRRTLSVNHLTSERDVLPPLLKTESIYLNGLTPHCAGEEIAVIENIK
# Outline: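 CHO-K1 cells stably expressing human TREK-1, loaded with Thallos dye, received compound or 0.3% DMSO vehicle for 10 min before thallium stimulus buffer. ΔRatio is fluorescence at 25 s after thallium addition over mean pre-addition fluorescence; % inhibition calculated from it.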
# [2] = molecular target: T1, human TREK-1; assay: TREK-1 Manual Patch Clamp (hMPC) assay; assay type: cell-based; settings: CHO-K1 cells stably expressing human TREK-1; whole-cell current at 0 mV
# Procedure: The term “patch clamp technique” herein refers to the “gold standard” technique for evaluating TREK channel pharmacology. The detail method is described below.
# CHO-K1 cells stably expressing human TREK-1 or HEK293 cells stably expressing human TREK-2 are plated on glass coverslips, and voltage clamped in the whole-cell configuration of the patch clamp technique. Cells were voltage clamped at a holding potential of −80 mV and the stepped to 0 mV for 500 msec. The voltage was subsequently ramped from −120 mV to +80 mV over a 500 msec duration. This step-ramp protocol was repeated every 10 sec. The bathing solution contained the following: 135 mM NaCl, 5 mM KCl, 2 mM CaCl2, 1 mM MgCl2, 5 mM D-Glucose, 10 mM HEPES, 10 mM sucrose (adjusted to pH 7.4 with NaOH, 300 mosmol/kg H2O). The pipette solution contained the following: 135 mM KCl, 2 mM MgCl2, 1 mM EGTA, 10 mM HEPES, 2 mM Na2ATP (adjusted to pH 7.35 with KOH, 285 mosmol/kg H2O). Test compounds were dissolved into the bathing solution. Experiments on TREK-2 were terminated with the addition of the control compound (tert-butyl (3-((4-(benzyloxy)-2-methylphenyl)carbamoyl)-4-chlorophenyl)carbamate) so that maximal inhibition could be determined. The effects of test compound on the currents were calculated at 0 mV using the following equations:
# For CHO cells expressing TREK-1 channel: % inhibition=(1-post current/pre current)×100
# The compounds shown in Table 2 were prepared in an analogous manner with the appropriate starting materials, and evaluated in our TREK-1 Manual Patch Clamp (hMPC) assay.
# [3] = values without footnote *12 are Method 1
Compound,inhibition at 30 µM [1] [%],other results
"CC(=O)N1CCC(n2ncc(Cl)c2C(=O)Nc2ncc(C#Cc3ccc(F)cc3)cc2C)[C@H](F)C1 (stereo in doubt) [Compound 10, 1-((3R,4R)-1-acetyl-3-fluoropiperidin-4-yl)-4-chloro-N-(5-((4-fluorophenyl)ethynyl)-3-methylpyridin-2-yl)-1H-pyrazole-5-carboxamide]",,"IC50 [1, 3]: 0.11 µM; IC50 [2]: 0.06 µM"
"Cc1cc(C#Cc2ccccc2)cnc1NC(=O)c1c(Cl)cnn1CC1COCCO1 (centres unmarked) [Compound 1, 1-((1,4-dioxan-2-yl)methyl)-4-chloro-N-(3-methyl-5-(phenylethynyl)pyridin-2-yl)-1H-pyrazole-5-carboxamide]",,"IC50 [1, 3]: 0.67 µM; IC50 [2]: 0.17 µM"
"Cc1cc(OCc2ccccc2)ccc1NC(=O)c1c(Cl)cnn1CC1CN(C(=O)C2CC2)CCO1 (centres unmarked) [Compound 432, N-(4-(benzyloxy)-2-methylphenyl)-4-chloro-1-((4-(cyclopropanecarbonyl)morpholin-2-yl)methyl)-1H-pyrazole-5-carboxamide]",,IC50 ([1]; Method 1): 6.45 µM
"CC(=O)N1CC2(CC(n3ncc(Cl)c3C(=O)Nc3ccc(OCc4ccccc4)cc3C)C2)C1 [Compound 433, 1-(2-acetyl-2-azaspiro[3.3]heptan-6-yl)-N-(4-(benzyloxy)-2-methylphenyl)-4-chloro-1H-pyrazole-5-carboxamide]",,IC50 ([1]; Method 1): 6.89 µM
"COc1ccc(-c2cnc(NC(=O)c3c(Cl)cnn3C3CCN(C(C)=O)CC3)c(C)c2)cc1Cl [Compound 434, 1-(1-acetylpiperidin-4-yl)-4-chloro-N-(5-(3-chloro-4-methoxyphenyl)-3-methylpyridin-2-yl)-1H-pyrazole-5-carboxamide]",,IC50 ([1]; Method 1): 7.43 µM
CCC(=O)N1CCOC(Cn2ncc(Cl)c2C(=O)Nc2ccc(OCc3ccccc3)cc2C)C1 (centres unmarked) [Compound 435],,IC50 ([1]; Method 1): 8.11 µM
"Cc1cc(-c2cnn(-c3ccccc3F)c2)cnc1NC(=O)c1c(Cl)cnn1C1CCN(C(=O)OC(C)(C)C)CC1 [Compound 436, tert-butyl 4-(4-chloro-5-((5-(1-(2-fluorophenyl)-1H-pyrazol-4-yl)-3-methylpyridin-2-yl)carbamoyl)-1H-pyrazol-1-yl)piperidine-1-carboxylate]",,IC50 ([1]; Method 1): 9.3 µM
"COc1cc(-c2cnc(NC(=O)c3c(Cl)cnn3C3CCN(C(=O)OC(C)(C)C)CC3)c(C)c2)ccn1 [Compound 437, tert-butyl 4-(4-chloro-5-((2′-methoxy-5-methyl-[3,4′-bipyridin]-6-yl)carbamoyl)-1H-pyrazol-1-yl)piperidine-1-carboxylate]",,IC50 ([1]; Method 1): 9.96 µM
"CC(=O)N1CCC(CCn2cc(Cl)c(C(=O)Nc3ncc(C#Cc4cccc(F)c4)cc3C)n2)CC1 [Compound 439, 1-(2-(1-acetylpiperidin-4-yl)ethyl)-4-chloro-N-(5-((3-fluorophenyl)ethynyl)-3-methylpyridin-2-yl)-1H-pyrazol-3-carboxamide]",-163,
"CC(=O)N1CCC(CCn2cc(Cl)c(C(=O)Nc3ncc(C#Cc4cccs4)cc3C)n2)CC1 [Compound 440, 1-(2-(1-actetylpiperidin-4-yl)ethyl)-4-chloro-N-(3-methyl-5-(thiophen-2-ylethynyl)pyridin-2-yl)-1H-pyrazole-3-carboxamide]",-135,
"Cc1cc(C#Cc2ccccc2F)cnc1NC(=O)c1nn(CCC2CCN(C(=O)C3CC3)CC2)cc1Cl [Compound 441, 4-chloro-1-(2-(1-(cyclopropanecarbonyl)piperidin-4-yl)ethyl)-N-(5-((2-fluorophenyl)ethynyl)-3-methylpyridin-2-yl)-1H-pyrazole-3-carboxamide]",-123,
"CC(=O)N1CCC(CCn2cc(Cl)c(C(=O)Nc3ncc(C#Cc4ccc(F)cc4)cc3C)n2)CC1 [Compound 442, 1-(2-(1-acetylpiperidin-4-yl)ethyl)-4-chloro-N-(5-((4-fluorophenyl)ethynyl)-3-methylpyridin-2-yl)-1H-pyrazole-3-carboxamide]",-118,
"Cc1cc(C#Cc2ccccc2)cnc1NC(=O)c1nn(C2CCOCC2)cc1Cl [Compound 443, 4-chloro-N-(3-methyl-5-(phenylethynyl)pyridin-2-yl)-1-(tetrahydro-2H-pyran-4-yl)-1H-pyrazole-3-carboxamide]",-116,
"Cc1cc(C#Cc2ccccc2)cnc1NC(=O)c1nn(CC2CCOCC2)cc1Cl [Compound 444, 4-chloro-N-(3-methyl-5-(phenylethynyl)pyridin-2-yl)-1-((tetrahydro-2H-pyran-4-yl)methyl)-1H-pyrazole-3-carboxamide]",-116,
"CC(=O)N1CCC(CCn2cc(Cl)c(C(=O)Nc3ncc(C#Cc4ccccc4F)cc3C)n2)CC1 [Compound 445, 1-(2-(1-acetylpiperidin-4-yl)ethyl)-4-chloro-N-(5-((2-fluorophenyl)ethynyl)-3-methylpyridin-2-yl)-1H-pyrazole-3-carboxamide]",-115,
"Cc1cc(C#Cc2ccc(F)cc2)cnc1NC(=O)c1nn(CCC2CCN(C(=O)C(C)C)CC2)cc1Cl [Compound 446, 4-chloro-N-(5-((4-fluorophenyl)ethynyl)-3-methylpyridin-2-yl)-1-(2-(1-isobutyrylpiperidin-4-yl)ethyl)-1H-pyrazole-3-carboxamide]",-108,
"CC(=O)N1CCC(CCn2cc(Cl)c(C(=O)Nc3ncc(C#Cc4cccs4)cc3F)n2)CC1 [Compound 447, 1-(2-(1-acetylpiperidin-4-yl)ethyl)-4-chloro-N-(3-fluoro-5-(thiophen-2-ylethynyl)pyridin-2-yl)-1H-pyrazole-3-carboxamide]",-107,
"O=C(Nc1ncc(C#Cc2cccs2)cc1F)c1nn(CCC2CCN(C(=O)C3COCCO3)CC2)cc1Cl (centres unmarked) [Compound 448, 1-(2-(1-(1,4-dioxane-2-carbonyl)piperidin-4-yl)ethyl)-4-chloro-N-(3-fluoro-5-(thiophen-2-ylethynyl)pyridin-2-yl)-1H-pyrazole-3-carboxamide]",-106,
"Cc1cc(C#Cc2ccccc2)cnc1NC(=O)c1nn(CC2COCCO2)cc1Cl (centres unmarked) [Compound 449, 1-((1,4-dioxan-2-yl)methyl)-4-chloro-N-(3-methyl-5-(phenylethynyl)pyridin-2-yl)-1H-pyrazole-3-carboxamide]",-99,
"Cc1cc(C#Cc2cccc(F)c2)cnc1NC(=O)c1nn(CCC2CCN(C(=O)C3CC3)CC2)cc1Cl [Compound 450, 4-chloro-1-(2-(1-(cyclopropanecarbonyl)piperidin-4-yl)ethyl)-N-(5-((3-fluorophenyl)ethynyl)-3-methylpyridin-2-yl)-1H-pyrazole-3-carboxamide]",-94,
"Cc1cc(C#Cc2ccc(F)cc2)cnc1NC(=O)c1nn(CCC2CCN(C(=O)C3CC3)CC2)cc1Cl [Compound 451, 4-chloro-1-(2-(1-(cyclopropanecarbonyl)piperidin-4-yl)ethyl)-N-(5-((4-fluorophenyl)ethynyl)-3-methylpyridin-2-yl)-1H-pyrazole-3-carboxamide]",-79,
"O=C(Nc1ncc(C#Cc2cccs2)cc1F)c1nn(CCC2CCN(C(=O)C3CC3)CC2)cc1Cl [Compound 452, 4-chloro-1-(2-(1-(cyclopropanecarbonyl)piperidin-4-yl)ethyl)-N-(3-fluoro-5-(thiophen-2-ylethynyl)pyridin-2-yl)-1H-pyrazole-3-carboxamide]",-62,
"Cn1ncc2c1CC(n1cc(Cl)c(C(=O)Nc3ncc(C#Cc4ccccc4)cc3F)n1)CC2=O (centres unmarked) [Compound 453, 4-chloro-N-(3-fluoro-5-(phenylethynyl)pyridin-2-yl)-1-(1-methyl-4-oxo-4,5,6,7-tetrahydro-1H-indazol-6-yl)-1H-pyrazole-3-carboxamide]",-56,
tert-butyl 4-(4-chloro-5-((3-fluoro-5-(phenylethynyl)pyridin-2-yl)carbamoyl)-1H-pyrazol-1-yl)-2-methylpiperidine-1-caboxylate [Compound 324],,IC50 ([1]; no *^12 (Method 2) mark on these rows): 0.64 µM
